Data taken from PubChem BioAssay AID282 (DTP/NCI, 2004).
Values joined by “and” are separate entries in the source; they are usually repeats but may differ in a detail not shown here. Equal entries are not always repeated. Toxic doses and inconclusive results are not listed.

Tested on: BDF1 mice, L1210 terephthalanilide-resistant leukemia ip, survival T/C
Assay: NCI In Vivo Anticancer Drug Screen. Data for tumor model L1210 Leukemia resistant to A Terephthalanilide; NSC 38280 (intraperitoneal) in B6D2F1 (BDF1) mice
Details: endpoint: mean survival time, higher = longer survival
Protocol: The antitumor activity of compounds was measured in mice bearing transplantable tumors. Survival or tumor size were measured and the results are expressed as the measurement made in the treated group (T) divided by the measurement made in the vehicle treated control group (C). The tumor model used in this assay is L1210 Leukemia resistant to A Terephthalanilide; NSC 38280 (intraperitoneal) in B6D2F1 (BDF1) mice

[1] = dose: 200.0 mg/kg/injection, schedule: Q01DX010 (ip), vehicle: saline
[2] = dose: 125.0 mg/kg/injection, schedule: Q01DX Z (ip), vehicle: saline
[3] = dose: 250.0 mg/kg/injection, schedule: Q01DX Z (ip), vehicle: saline
[4] = dose: 500.0 mg/kg/injection, schedule: Q01DX Z (ip), vehicle: saline
[5] = dose: 2.5 mg/kg/injection, schedule: Q01DX010 (ip), vehicle: saline
[6] = dose: 5.0 mg/kg/injection, schedule: Q01DX010 (ip), vehicle: saline
[7] = dose: 5.0 mg/kg/injection, schedule: Q01DX Z (ip), vehicle: carboxymethylcellulose (CMC)
[8] = dose: 10.0 mg/kg/injection, schedule: Q01DX010 (ip), vehicle: saline
[9] = dose: 20.0 mg/kg/injection, schedule: Q01DX010 (ip), vehicle: saline
[10] = dose: 20.0 mg/kg/injection, schedule: Q01DX Z (ip), vehicle: carboxymethylcellulose (CMC)
[11] = dose: 6.25 mg/kg/injection, schedule: Q01DX Z (ip), vehicle: carboxymethylcellulose (CMC)
[12] = dose: 25.0 mg/kg/injection, schedule: Q01DX Z (ip), vehicle: carboxymethylcellulose (CMC)
[13] = dose: 500.0 mg/kg/injection, schedule: Q01DX Z (ip), vehicle: carboxymethylcellulose (CMC)
[14] = dose: 0.5 mg/kg/injection, schedule: Q01DX Z (ip), vehicle: carboxymethylcellulose (CMC)
[15] = dose: 1.0 mg/kg/injection, schedule: Q01DX Z (ip), vehicle: carboxymethylcellulose (CMC)
[16] = dose: 4.0 mg/kg/injection, schedule: Q01DX010 (ip), vehicle: other
[17] = dose: 8.0 mg/kg/injection, schedule: Q01DX010 (ip), vehicle: other
[18] = dose: 16.0 mg/kg/injection, schedule: Q01DX010 (ip), vehicle: other
[19] = dose: 32.0 mg/kg/injection, schedule: Q01DX010 (ip), vehicle: other
[20] = dose: 62.5 mg/kg/injection, schedule: Q01DX Z (ip), vehicle: carboxymethylcellulose (CMC)
[21] = dose: 62.5 mg/kg/injection, schedule: Q01DX010 (ip), vehicle: saline
[22] = dose: 125.0 mg/kg/injection, schedule: Q01DX010 (ip), vehicle: saline

## CN(C)CC(=O)c1ccc(O)c(O)c1
dose: 134.0 mg/kg/injection, schedule: Q01DX010 (ip), vehicle: saline
  T/C: 104 % of control
dose: 135.0 mg/kg/injection, schedule: Q01DX010 (ip), vehicle: saline
  T/C: 114 % of control
[1]
  T/C: 104 % of control and 105 % of control
dose: 300.0 mg/kg/injection, schedule: Q01DX010 (ip), vehicle: saline
  T/C: 120 % of control and 97 % of control
dose: 450.0 mg/kg/injection, schedule: Q01DX010 (ip), vehicle: saline
  T/C: 121 % of control and 110 % of control

## CCOC(=O)NP(=O)(N1CC1(C)C)N1CC1(C)C (centres undefined)
dose: 5.0 mg/kg/injection, schedule: Q01DX Z (ip), vehicle: saline
  T/C: 101 % of control
dose: 10.0 mg/kg/injection, schedule: Q01DX Z (ip), vehicle: saline
  T/C: 115 % of control
dose: 20.0 mg/kg/injection, schedule: Q01DX Z (ip), vehicle: saline
  T/C: 121 % of control
dose: 40.0 mg/kg/injection, schedule: Q01DX Z (ip), vehicle: saline
  T/C: 151 % of control
dose: 62.0 mg/kg/injection, schedule: Q01DX Z (ip), vehicle: saline
  T/C: 164 % of control
[2]
  T/C: 236 % of control
[3]
  T/C: 302 % of control
[4]
  T/C: 100 % of control

## S=P(N1CCOCC1)(N1CC1)N1CC1
dose: 1.87 mg/kg/injection, schedule: Q01DX Z (ip), vehicle: carboxymethylcellulose (CMC)
  T/C: 98 % of control and 111 % of control
[5]
  T/C: 92 % of control and 101 % of control
dose: 3.75 mg/kg/injection, schedule: Q01DX Z (ip), vehicle: carboxymethylcellulose (CMC)
  T/C: 107 % of control and 115 % of control
[6]
  T/C: 97 % of control and 102 % of control
[7]
  T/C: 98 % of control and 114 % of control
[8]
  T/C: 99 % of control and 100 % of control
[9]
  T/C: 101 % of control
[10]
  T/C: 159 % of control
dose: 40.0 mg/kg/injection, schedule: Q01DX Z (ip), vehicle: carboxymethylcellulose (CMC)
  T/C: 104 % of control

## O=c1[nH]cc(F)c(=O)[nH]1
dose: 0.37 mg/kg/injection, schedule: Q01DX Z (ip), vehicle: carboxymethylcellulose (CMC)
  T/C: 102 % of control
dose: 0.75 mg/kg/injection, schedule: Q01DX Z (ip), vehicle: carboxymethylcellulose (CMC)
  T/C: 114 % of control
dose: 1.5 mg/kg/injection, schedule: Q01DX Z (ip), vehicle: carboxymethylcellulose (CMC)
  T/C: 117 % of control
[6]
  T/C: 119 % of control
[11]
  T/C: 175 % of control
[8]
  T/C: 119 % of control
dose: 12.5 mg/kg/injection, schedule: Q01DX Z (ip), vehicle: carboxymethylcellulose (CMC)
  T/C: 185 % of control
[9]
  T/C: 181 % of control and 198 % of control
[12]
  T/C: 227 % of control
dose: 40.0 mg/kg/injection, schedule: Q01DX010 (ip), vehicle: saline
  T/C: 104 % of control and 110 % of control
dose: 100.0 mg/kg/injection, schedule: Q01DX Z (ip), vehicle: carboxymethylcellulose (CMC)
  T/C: 94 % of control and 102 % of control

## O=c1[nH]c(=O)n(C2CC(O)C(CO)O2)cc1I (centres undefined)
[13]
  T/C: 151 % of control

## Nc1nc(=S)c2[nH]cnc2[nH]1
[14]
  T/C: 165 % of control
[15]
  T/C: 158 % of control
dose: 1.25 mg/kg/injection, schedule: Q01DX010 (ip), vehicle: saline
  T/C: 156 % of control
[5]
  T/C: 173 % of control
dose: 2.5 mg/kg/injection, schedule: Q01DX Z (ip), vehicle: carboxymethylcellulose (CMC)
  T/C: 159 % of control
[6]
  T/C: 108 % of control and 113 % of control
[7]
  T/C: 109 % of control
[8]
  T/C: 90 % of control and 98 % of control
dose: 10.0 mg/kg/injection, schedule: Q01DX Z (ip), vehicle: carboxymethylcellulose (CMC)
  T/C: 96 % of control and 116 % of control
dose: 15.0 mg/kg/injection, schedule: Q01DX Z (ip), vehicle: carboxymethylcellulose (CMC)
  T/C: 106 % of control
[10]
  T/C: 96 % of control and 101 % of control
dose: 31.0 micrograms/kg/injection, schedule: Q01DX Z (ip), vehicle: carboxymethylcellulose (CMC)
  T/C: 107 % of control
dose: 125.0 micrograms/kg/injection, schedule: Q01DX Z (ip), vehicle: carboxymethylcellulose (CMC)
  T/C: 110 % of control

## Cc1cc(N(CCCl)CCCl)ccc1N=Nc1ccccc1C(=O)O
[14]
  T/C: 105 % of control
[15]
  T/C: 102 % of control
dose: 2.0 mg/kg/injection, schedule: Q01DX Z (ip), vehicle: carboxymethylcellulose (CMC)
  T/C: 115 % of control
[6]
  T/C: 108 % of control and 113 % of control
[11]
  T/C: 111 % of control
[8]
  T/C: 116 % of control and 120 % of control
[9]
  T/C: 118 % of control and 119 % of control
[12]
  T/C: 115 % of control
dose: 37.5 mg/kg/injection, schedule: Q01DX Z (ip), vehicle: carboxymethylcellulose (CMC)
  T/C: 112 % of control
dose: 50.0 mg/kg/injection, schedule: Q01DX Z (ip), vehicle: carboxymethylcellulose (CMC)
  T/C: 100 % of control

## O=C(Nc1ccc(C2=NCCN2)cc1)c1ccc(C(=O)Nc2ccc(C3=NCCN3)cc2)c(Cl)c1
dose: 2.0 mg/kg/injection, schedule: Q01DX010 (ip), vehicle: other
  T/C: 98 % of control and 100 % of control
[16]
  T/C: 107 % of control and 110 % of control
[17]
  T/C: 107 % of control and 117 % of control
[18]
  T/C: 122 % of control and 107 % of control
[19]
  T/C: 120 % of control and 112 % of control

## O=C(Nc1ccc(C2=NCCN2)cc1)c1ccc(C(=O)Nc2ccc(C3=NCCN3)cc2)cc1
[16]
  T/C: 112 % of control and 115 % of control
[17]
  T/C: 123 % of control and 114 % of control
[18]
  T/C: 112 % of control and 117 % of control
[19]
  T/C: 114 % of control and 117 % of control
dose: 64.0 mg/kg/injection, schedule: Q01DX010 (ip), vehicle: other
  T/C: 103 % of control and 110 % of control

## O=c1[nH]c(=O)n(C2CC(O)C(CO)O2)cc1Br (centres undefined)
[20]
  T/C: 110 % of control
[13]
  T/C: 119 % of control

## C1CN1c1nc(N2CC2)nc(N2CC2)n1
dose: 0.13 mg/kg/injection, schedule: Q01DX010 (ip), vehicle: saline
  T/C: 108 % of control
dose: 0.25 mg/kg/injection, schedule: Q01DX010 (ip), vehicle: saline
  T/C: 99 % of control
dose: 0.5 mg/kg/injection, schedule: Q01DX010 (ip), vehicle: saline
  T/C: 104 % of control

## CSc1ncnc2nc[nH]c12
dose: 25.0 mg/kg/injection, schedule: Q01DX010 (ip), vehicle: saline
  T/C: 98 % of control and 100 % of control
dose: 31.25 mg/kg/injection, schedule: Q01DX Z (ip), vehicle: carboxymethylcellulose (CMC)
  T/C: 102 % of control
dose: 50.0 mg/kg/injection, schedule: Q01DX010 (ip), vehicle: saline
  T/C: 100 % of control and 102 % of control
[20]
  T/C: 105 % of control
dose: 100.0 mg/kg/injection, schedule: Q01DX010 (ip), vehicle: saline
  T/C: 102 % of control and 107 % of control
dose: 125.0 mg/kg/injection, schedule: Q01DX Z (ip), vehicle: carboxymethylcellulose (CMC)
  T/C: 113 % of control
[1]
  T/C: 102 % of control and 105 % of control

## CCCCNc1ncnc2c1cnn2C
dose: 31.3 mg/kg/injection, schedule: Q01DX010 (ip), vehicle: saline
  T/C: 100 % of control
[21]
  T/C: 105 % of control and 108 % of control
[22]
  T/C: 89 % of control

## O=CCC(O)C(O)C(O)CO (centres undefined)
[21]
  T/C: 96 % of control and 104 % of control
dose: 62.5 mg/kg/injection, schedule: Q01DX Z (ip), vehicle: saline
  T/C: 112 % of control
[22]
  T/C: 113 % of control
[2]
  T/C: 108 % of control
dose: 250.0 mg/kg/injection, schedule: Q01DX010 (ip), vehicle: saline
  T/C: 105 % of control and 113 % of control
[3]
  T/C: 108 % of control
dose: 500.0 mg/kg/injection, schedule: Q01DX010 (ip), vehicle: saline
  T/C: 116 % of control and 118 % of control
[4]
  T/C: 116 % of control

## O=C(Nc1ccc(C(=O)Nc2ccc(C3=NCCCN3)cc2)cc1)Nc1ccc(C2=NCCCN2)cc1
dose: 1.88 mg/kg/injection, schedule: Q01DX010 (ip), vehicle: saline
  T/C: 93 % of control and 108 % of control
dose: 3.75 mg/kg/injection, schedule: Q01DX010 (ip), vehicle: saline
  T/C: 95 % of control and 114 % of control
dose: 7.5 mg/kg/injection, schedule: Q01DX010 (ip), vehicle: saline
  T/C: 122 % of control and 119 % of control
dose: 15.0 mg/kg/injection, schedule: Q01DX010 (ip), vehicle: saline
  T/C: 117 % of control
